According to PubChem BioAssay AID1918934 (Molecular Pharmacology Branch, DTP, NCI, 2023):
pIC50: −log10 of the molar value.

Tested on: 292921-168-R-J2-PDC complex spheroid viability
Assay: Anticancer human tumor 292921-168-R-J2-PDC patient-derived pancreatic carcinoma cell line growth inhibition
Conditions: for pIC50: curve of first compound; for viability, T/C: stronger effect = lower value
How it was run: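 Complex spheroids of tumor cells with HUVEC and human MSCs, exposed to iadademstat combined with other agents. Each agent tested in half-log steps from near clinical Cmax (else 10 microM top), DMSO ≤0.25%.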

[1] = second compound 0.1 µM, first compound 0.000949 µM
[2] = second compound 0.1 µM, first compound 0.003 µM
[3] = second compound 0.1 µM, first compound 0.00949 µM
[4] = second compound 0.1 µM, first compound 0.03 µM
[5] = second compound 0.1 µM, first compound 0.0949 µM
[6] = second compound 0.1 µM, first compound 0.3 µM
[7] = second compound 0.316 µM, first compound 0.000949 µM
[8] = second compound 0.316 µM, first compound 0.003 µM
[9] = second compound 0.316 µM, first compound 0.00949 µM
[10] = second compound 0.316 µM, first compound 0.03 µM
[11] = second compound 0.316 µM, first compound 0.0949 µM
[12] = second compound 0.316 µM, first compound 0.3 µM
[13] = second compound 1 µM, first compound 0.000949 µM
[14] = second compound 1 µM, first compound 0.003 µM
[15] = second compound 1 µM, first compound 0.00949 µM
[16] = second compound 1 µM, first compound 0.03 µM
[17] = second compound 1 µM, first compound 0.0949 µM
[18] = second compound 1 µM, first compound 0.3 µM
[19] = second compound 3.16 µM, first compound 0.000949 µM
[20] = second compound 3.16 µM, first compound 0.003 µM
[21] = second compound 3.16 µM, first compound 0.00949 µM
[22] = second compound 3.16 µM, first compound 0.03 µM
[23] = second compound 3.16 µM, first compound 0.0949 µM
[24] = second compound 3.16 µM, first compound 0.3 µM
[25] = second compound 10 µM, first compound 0.000949 µM
[26] = second compound 10 µM, first compound 0.003 µM
[27] = second compound 10 µM, first compound 0.00949 µM
[28] = second compound 10 µM, first compound 0.03 µM
[29] = second compound 10 µM, first compound 0.0949 µM
[30] = second compound 10 µM, first compound 0.3 µM
[31] = second compound 0.1 µM, first compound 0.949 µM
[32] = second compound 0.1 µM, first compound 3 µM
[33] = second compound 0.316 µM, first compound 0.949 µM
[34] = second compound 0.316 µM, first compound 3 µM
[35] = second compound 1 µM, first compound 0.949 µM
[36] = second compound 1 µM, first compound 3 µM
[37] = second compound 3.16 µM, first compound 0.949 µM
[38] = second compound 3.16 µM, first compound 3 µM
[39] = second compound 10 µM, first compound 0.949 µM
[40] = second compound 10 µM, first compound 3 µM
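Also: seven day compound exposure before luminescent viability read.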
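For viability, T/C in this document: 100% = DMSO vehicle control wells.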

SMILES	pIC50 (second compound 0.1 µM)	pIC50 (second compound 0.316 µM)	pIC50 (second compound 1 µM)	pIC50 (second compound 3.16 µM)	pIC50 (second compound 10 µM)	viability, T/C [3]	viability, T/C [4]	viability, T/C [5]	viability, T/C [6]	viability, T/C [9]	viability, T/C [10]	viability, T/C [11]	viability, T/C [12]	viability, T/C [15]	viability, T/C [16]	viability, T/C [17]	viability, T/C [18]	viability, T/C [21]	viability, T/C [22]	viability, T/C [23]	further results
CCc1c2c(nc3ccc(O)cc13)-c1cc3c(c(=O)n1C2)COC(=O)[C@]3(O)CC + NC1CCC(NC2CC2c2ccccc2)CC1	> 9.02	> 9.02	> 9.02	> 9.02	> 9.02	1.77%	0.99%	0.98%	1.08%	1.62%	0.85%	0.86%	1.09%	1.33%	0.71%	0.85%	0.78%	1.39%	0.55%	0.97%	viability, T/C [1]: 5.27%; viability, T/C [2]: 3.61%; viability, T/C [7]: 5.76%; viability, T/C [8]: 4.37%; viability, T/C [13]: 5.78%; viability, T/C [14]: 3.94%; viability, T/C [19]: 6.37%; viability, T/C [20]: 3.93%; viability, T/C [24]: 0.91%; viability, T/C [25]: 4.96%; viability, T/C [26]: 3.66%; viability, T/C [27]: 0.99%; viability, T/C [28]: 0.7%; viability, T/C [29]: 0.8%; viability, T/C [30]: 0.74%
NS(=O)(=O)OCC1CC(n2ccc3c(NC4CCc5ccccc54)ncnc32)CC1O (stereo not given) + NC1CC1c1ccc(-c2cccc(O)c2)cc1	7.76	7.76	7.76	7.75	7.79	87.4%	16.4%	5.35%	2.15%	86.8%	16%	5.14%	2.21%	89.1%	14.7%	4.08%	2.39%	91%	16.4%	5.76%	viability, T/C [31]: 2.62%; viability, T/C [32]: 1.96%; viability, T/C [33]: 1.99%; viability, T/C [34]: 2.75%; viability, T/C [35]: 2.73%; viability, T/C [36]: 2.93%; viability, T/C [24]: 2.49%; viability, T/C [37]: 3.17%; viability, T/C [38]: 2.38%; viability, T/C [27]: 76.1%; viability, T/C [28]: 21.5%; viability, T/C [29]: 5.5%; viability, T/C [30]: 2.88%; viability, T/C [39]: 2.28%; viability, T/C [40]: 2.43%
Nc1ncn(C2CC(O)C(CO)S2)c(=O)n1 (stereo not given) + NC1CC1c1ccc(-c2cccc(O)c2)cc1	7.21	7.27	7.30	7.40	7.44	73.2%	62.2%	42.7%	11.5%	63.9%	63.1%	37.3%	13.3%	74.4%	56.9%	38.5%	12.8%	62.6%	55.1%	36%	viability, T/C [1]: 83%; viability, T/C [2]: 80.8%; viability, T/C [7]: 66.8%; viability, T/C [8]: 73.2%; viability, T/C [13]: 63.9%; viability, T/C [14]: 67%; viability, T/C [19]: 67.5%; viability, T/C [20]: 66.8%; viability, T/C [24]: 12.8%; viability, T/C [25]: 55.2%; viability, T/C [26]: 62%; viability, T/C [27]: 59.9%; viability, T/C [28]: 52.8%; viability, T/C [29]: 33.6%; viability, T/C [30]: 15.5%
Nc1ncn(C2CC(O)C(CO)S2)c(=O)n1 (stereo not given) + NC1CCC(NC2CC2c2ccccc2)CC1	7.36	7.40	7.43	7.46	7.51	63.2%	57.1%	36.8%	10.9%	59.1%	57.2%	33.2%	11.2%	55.2%	53.9%	33.6%	10.3%	58.6%	52.9%	28%	viability, T/C [1]: 68.9%; viability, T/C [2]: 62%; viability, T/C [7]: 66.8%; viability, T/C [8]: 64.3%; viability, T/C [13]: 52.2%; viability, T/C [14]: 62.7%; viability, T/C [19]: 55.1%; viability, T/C [20]: 61.9%; viability, T/C [24]: 11%; viability, T/C [25]: 56.3%; viability, T/C [26]: 61.2%; viability, T/C [27]: 59.6%; viability, T/C [28]: 49.6%; viability, T/C [29]: 28.2%; viability, T/C [30]: 11.5%
O=C(C=Cc1cccc(S(=O)(=O)Nc2ccccc2)c1)NO + NC1CC1c1ccc(-c2cccc(O)c2)cc1	7.53	> 8.02	7.93	7.92	> 8.02	59.3%	48.9%	34.9%	25.2%	52.5%	42.6%	38.6%	24.9%	54.4%	43.4%	40.3%	22.8%	52.1%	45.7%	35.7%	viability, T/C [31]: 1.42%; viability, T/C [32]: 0.23%; viability, T/C [33]: 1.57%; viability, T/C [34]: 0.46%; viability, T/C [35]: 0.74%; viability, T/C [36]: 0.53%; viability, T/C [24]: 22.8%; viability, T/C [37]: 0.66%; viability, T/C [38]: 0.11%; viability, T/C [27]: 45.2%; viability, T/C [28]: 36.9%; viability, T/C [29]: 31.8%; viability, T/C [30]: 18.7%; viability, T/C [39]: 0.41%; viability, T/C [40]: 0.15%
